Counter-ions that a name gives are not always drawn.
Experiments:
human TAAR1 receptor = human TAAR1 receptor (Homo sapiens (Human), UniProt Q96RJ0); assay: Evaluation of agonist activity on human TAAR1 receptor (cAMP assay); assay type: cell-based; settings: cAMP in human TAAR1-expressing CHO cells, relative to 100 μM tyramine; for activation at 0.1 µM / activation at 1 µM / activation at 10 µM: CHO, 0.5 h, read-out: TAAR1 agonist activity at each concentration (%); for activation at 1 µM: 1000 nM; for activation at 10 µM: 10000 nM
hERG channel = hERG channel (Homo sapiens (Human), UniProt Q12809); assay: Evaluation of hERG channel inhibitory activity (whole-cell patch clamp, hERG-CHO cells); assay type: cell-based; settings: autopatch clamp, read-out: hERG inhibition IC50
hERG channel, sequence (Q12809 whole entry): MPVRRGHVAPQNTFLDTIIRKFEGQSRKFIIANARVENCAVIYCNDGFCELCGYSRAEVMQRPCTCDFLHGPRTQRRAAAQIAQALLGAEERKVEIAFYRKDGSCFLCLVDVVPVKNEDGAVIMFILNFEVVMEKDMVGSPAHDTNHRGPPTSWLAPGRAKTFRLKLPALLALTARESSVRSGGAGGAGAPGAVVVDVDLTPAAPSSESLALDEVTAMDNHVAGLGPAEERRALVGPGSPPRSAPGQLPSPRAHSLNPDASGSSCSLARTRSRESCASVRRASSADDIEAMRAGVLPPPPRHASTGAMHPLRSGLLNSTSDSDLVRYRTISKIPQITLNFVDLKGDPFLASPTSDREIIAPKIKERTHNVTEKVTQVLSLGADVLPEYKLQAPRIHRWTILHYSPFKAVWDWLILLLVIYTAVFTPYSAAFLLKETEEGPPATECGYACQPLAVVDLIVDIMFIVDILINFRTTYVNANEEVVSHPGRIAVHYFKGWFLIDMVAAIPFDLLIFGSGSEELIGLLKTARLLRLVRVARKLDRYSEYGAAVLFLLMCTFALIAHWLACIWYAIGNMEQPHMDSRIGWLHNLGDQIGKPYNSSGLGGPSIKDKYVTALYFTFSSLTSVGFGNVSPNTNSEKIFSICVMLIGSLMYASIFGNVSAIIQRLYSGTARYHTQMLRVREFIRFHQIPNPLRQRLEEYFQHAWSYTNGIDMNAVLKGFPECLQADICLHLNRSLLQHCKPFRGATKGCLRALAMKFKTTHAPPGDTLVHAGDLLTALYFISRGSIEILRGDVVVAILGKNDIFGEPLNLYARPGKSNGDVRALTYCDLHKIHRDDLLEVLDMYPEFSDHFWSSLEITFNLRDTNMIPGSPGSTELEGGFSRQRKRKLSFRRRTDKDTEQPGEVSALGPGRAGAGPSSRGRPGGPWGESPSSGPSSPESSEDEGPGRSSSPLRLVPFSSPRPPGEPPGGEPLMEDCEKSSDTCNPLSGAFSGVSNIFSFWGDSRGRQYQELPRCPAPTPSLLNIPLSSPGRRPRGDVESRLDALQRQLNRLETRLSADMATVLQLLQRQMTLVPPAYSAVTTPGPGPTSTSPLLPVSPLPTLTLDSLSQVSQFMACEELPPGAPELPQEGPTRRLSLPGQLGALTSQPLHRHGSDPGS

human TAAR1 receptor, sequence (Q96RJ0 whole entry, the tested form may be a part): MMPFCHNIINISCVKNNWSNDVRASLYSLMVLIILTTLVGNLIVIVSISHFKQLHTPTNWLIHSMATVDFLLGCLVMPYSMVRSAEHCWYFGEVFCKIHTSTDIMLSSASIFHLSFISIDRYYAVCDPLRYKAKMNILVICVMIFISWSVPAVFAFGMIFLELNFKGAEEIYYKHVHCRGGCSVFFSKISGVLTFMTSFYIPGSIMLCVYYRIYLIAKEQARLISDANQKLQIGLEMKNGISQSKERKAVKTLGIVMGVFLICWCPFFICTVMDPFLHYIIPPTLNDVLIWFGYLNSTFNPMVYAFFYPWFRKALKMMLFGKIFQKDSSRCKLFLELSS

activation at 0.1 µM (human TAAR1 receptor; 100 nM) [%] | activation at 1 µM (human TAAR1 receptor) [%] | activation at 10 µM (human TAAR1 receptor) [%] | TAAR1 agonist activity at each concentration (%) (human TAAR1 receptor; 100 nM, dihydrochloride) | SMILES | IC50 (hERG channel) [µM]
10 | 48 | 83 |  | Cc1ccnc2c1O[C@H](C)[C@H]2CN [Example 34, 1-[(2R,3S)-2,7-dimethyl-2,3-dihydrofuro[3,2-b]pyridin-3-yl]methanamine dihydrochloride] | > 100
57 | 82 | 87 |  | Cc1ccc2c(n1)[C@H](CN)[C@@H](C)O2 [Example 35, 1-[(2R,3S)-2,5-dimethyl-2,3-dihydrofuro[3,2-b]pyridin-3-yl]methanamine] | > 100
 | 49 | 72 | 13 | C[C@H]1Oc2cc(Cl)cnc2[C@@H]1CN [Example 37, 1-[(2R,3S)-6-chloro-2-methyl-2,3-dihydrofuro[3,2-b]pyridin-3-yl]methanamine dihydrochloride] | > 100
52 | 86 | 93 |  | C[C@H]1Oc2ccc(Cl)nc2[C@@H]1CN [Example 38, 1-[(2R,3S)-5-chloro-2-methyl-2,3-dihydrofuro[3,2-b]pyridin-3-yl]methanamine dihydrochloride] | > 100
31 | 70 | 80 |  | CNC[C@H]1c2ncccc2O[C@@H]1C [Example 46, N-methyl-1-[(2R,3S)-2-methyl-2,3-dihydrofuro[3,2-b]pyridin-3-yl]methanamine dihydrochloride] | > 100
13 | 52 | 84 |  | CNC[C@@H]1C[C@@H](C)Oc2ccc(C)nc21 [Example 47] | > 100
38 | 74 | 86 |  | CNC[C@H]1c2nc(C)ccc2O[C@@H]1C [Example 48] | > 100
25 | 63 | 75 |  | CNC[C@H]1c2ncc(F)cc2O[C@@H]1C [Example 49, 1-[(2R,3S)-6-fluoro-2-methyl-2,3-dihydrofuro[3,2-b]pyridin-3-yl]-N-methylmethanamine dihydrobromide] | > 100
12 | 45 | 63 |  | CNC[C@H]1c2ncc(Cl)cc2O[C@@H]1C [Example 50] | > 100
10 | 46 | 77 |  | CNC[C@H]1c2nccc(C)c2O[C@@H]1C [Example 51] | > 100
36 | 74 | 82 |  | NCC1c2ncccc2OC12CC2 (centres unmarked) [Example 58] | > 100
36 | 77 | 90 |  | CNCC1c2nc(C)ccc2OC1(C)C (centres unmarked) [Example 79] | > 100
59 | 91 | 99 |  | Cc1ccc2c(n1)C(CN)C(C)(C)O2 (centres unmarked) [Example 83] | > 100
15 | 51 | 79 |  | Cc1cc(C)c2c(n1)[C@H](CN)[C@@H](C)O2 [Example 84] | > 100

From patent US20240150370A1, “BICYCLIC PYRIDINE DERIVATIVE” (Sumitomo Pharma Co., Ltd., priority 0001, published 2024)
